≈ marks a conversion by molar mass, not a printed value.
Legend:
[1] = test system: B. subtilis 168; experiment: microbe, parasite or virus in culture; format: cell-based, Bacillus subtilis; conditions: broth microdilution, Mueller-Hinton broth (without cation adjustment), CLSI, inoculum 5×10^4 CFU mL^−1; wild type
Protocol: (§1) Determination of antibacterial activity: ADEP1 was purified from the culture supernatant of S. hawaiiensis NRRL 15010 as described.4 ADEPs 2, 4, 7, 9 were custom synthesised by EMC Microcollections, Tübingen, or provided by AiCuris, Wuppertal, Germany. The minimal inhibitory concentration (MIC) was determined by broth microdilution in Mueller‐Hinton broth (without cation adjustment) according to the guidelines of the Clinical Laboratory Standards Institute (CLSI).69 The inoculum was set to 5×10^4 CFU mL^−1 to allow some distance to the determined spontaneous resistance frequencies. […] All other ADEPs were used from DMSO stock solutions kept at −20 °C.

[2] = test system: S. pneumoniae RC4; format: cell-based, Streptococcus pneumoniae; conditions: resistant clone of S. pneumoniae G9A; ClpP A94→G (ClpP core; β4)
Protocol: as §1
(§2) Screening for ADEP‐resistant mutants and determination of resistance rates: Single colonies of wild‐type strains grown on Mueller‐Hinton agar plates overnight were suspended in sterile saline and a final inoculum of 5×10^6 cells was spread on plates supplemented with different ADEP congeners at 4× and 10× the MIC. For B. subtilis strain 3xclpP, ADEP7‐containing Mueller‐Hinton agar plates were additionally supplemented with 1 mM IPTG. Resistant colonies were counted after 24 h at 37 °C and colonies were randomly chosen for MIC determinations and sequencing. Mutations in the clpP gene of the respective isolated mutants were analysed by amplifying the clpP gene (and upstream promoter region) by PCR and sequencing of the resulting PCR amplicons (LGC genomics). Sequencing data were analysed by using SnapGene software (GSL Biotech).

[3] = test system: wild-type SaClpP; experiment: FITC-casein degradation by ADEP-activated ClpP; format: biochemical, Staphylococcus aureus; conditions: 1 μM SaClpP, 20 μM FITC-casein, 32 °C; Figure 6D
Protocol: Peptide and protein degradation assays: Degradation assays with the fluorogenic peptide substrate Suc‐Leu‐Tyr‐7‐amino‐4‐methylcoumarin (Suc‐LY‐AMC) were performed in either BsClpP (50 mM Tris‐HCl, 25 mM MgCl2, 200 mM KCl, 2 mM DTT, pH 8) or SaClpP activity buffer (100 mM HEPES pH 7, 100 mM NaCl) in black, flat‐bottom‐96‐well plates (Sarstedt) with a total reaction volume of 100 μl and reaction temperatures of 32 °C and 37 °C for SaClpP and BsClpP, respectively. Purified ClpP proteins (final concentrations as indicated in the respective experiments) and ADEP2 (applied in 1 μl from a DMSO stock solution) were mixed and pre‐incubated for 15 min at reaction temperatures. […] Fluorophore release upon peptide hydrolysis was read out in a Tecan Infinite M200Pro plate reader (excitation/emission: 380/460 nm) every 30–60 s for 1 h. […] SaClpP (1 μM) and ADEP2 (concentrations as indicated) were pre‐incubated at 32 °C for 15 min before initiating the reaction by addition of FITC – casein (20 μM final concentration) and fluorescence readout (excitation/emission: 485/535 nm). In both assays, enzyme velocity was determined by linear regression of the initial segment of the fluorescence‐time plot in GraphPad Prism 5. […] Decrease of fluorescence was monitored at an emission wavelength of 535 nm in white, flat‐bottom 96‐well‐plates (Greiner). […]

[4] = test system: E. faecium RC1; format: cell-based, Enterococcus faecium; conditions: resistant clone of E. faecium L4001; ClpP I29→T, ADEP binding site
Protocol: as §1, §2

[5] = test system: E. faecium RC2; format: cell-based, Enterococcus faecium; conditions: resistant clone of E. faecium L4001; insertion of IS30 family transposase between promotor and start codon, no expression
Protocol: as §1, §2

[6] = test system: E. faecium RC3; format: cell-based, Enterococcus faecium; conditions: resistant clone of E. faecium L4001; ClpP G127→A (equatorial interface)
Protocol: as §1, §2

C[C@@H]1C[C@H]2C(=O)OC[C@H](NC(=O)[C@H](Cc3cc(F)cc(F)c3)NC(=O)CCC3CCCCC3)C(=O)N3CCC[C@H]3C(=O)N3CCCC[C@H]3C(=O)N[C@@H](C)C(=O)N2C1 [ADEP2]
MIC [1]: ≤0.031 µg/mL
MIC [2]: 16 µg/mL (≈ 20 µM)
concentration sufficient for an almost maximal casein degradation rate [3]: 3 µM
MIC [4]: 0.125 µg/mL (≈ 0.156 µM)
MIC [5]: >16 µg/mL
MIC [6]: 4 µg/mL (≈ 5.01 µM)
